Experimental data reported in patent US20070254952A1, “CANNABINOID RECEPTOR MODULATORS” (priority 2006, published 2007).

Key:
CB1 receptor = target: T1, CB1 receptor (Homo sapiens, UniProt P21554); experiment: Competition binding assay for cannabinoid CB1 affinity (3H-CP55,940 displacement, membranes); conditions: membranes from cells expressing the receptor, 0.5 nM 3H-CP55,940; Ki by Cheng and Prusoff
T1 construct: purchased
Procedure: (§1) Competition binding assays for cannabinoid CB1 and CB2 affinity were performed by incubating commercially purchased membranes prepared from cells expressing each receptor subtype (8 μg pro) with 0.5 nM ^3H-CP55,940, a non-selective cannabinoid agonist, along with concentrations of drug ranging from 0.0001-3 μM in Buffer A (5 mM MgCl2, 2.5 mM EDTA and […] BSA). Non-specific binding was defined in the presence of 10 μM CP55,940. For saturation studies, concentrations of ^3H-CP55,940 ranging from 0.1-5 nM were incubated with membranes in the presence and absence of 10 μM CP55,940. Assays were terminated after incubation for 1½ hours by rapid filtration onto 0.3% polyethylenamine treated GF/C filterplates using a BRANDEL cell harvester. The plates were dried and MICROSCINT scintillation cocktail was added, after which the bound radioactivity was quantified using a TOPCOUNT scintillation counter.
(§2) The dissociation constant (Kd) of ^3H-CP55,940 at the CB1 and CB2 receptor were determined by plotting specific binding at each concentration of radioligand, and analysis by non-linear regression. For competition studies, the concentration of each drug that inhibited 50 percent of ^3H-CP55,940 binding (IC50) was determined by non-linear regression analysis of the radioligand displacement curves. Affinity constants (Ki) were calculated using the equation derived by Cheng and Prusoff (1973), defined as: IC50/1+[conc. ligand/Kd].

CB2 receptor = target: T2, CB2 receptor (Homo sapiens, UniProt P34972); experiment: Competition binding assay for cannabinoid CB2 affinity (3H-CP55,940 displacement, membranes); conditions: membranes from cells expressing the receptor, 0.5 nM 3H-CP55,940; Ki by Cheng and Prusoff
T2 construct: purchased
Procedure: as §1, §2

T1 sequence (P21554 whole entry): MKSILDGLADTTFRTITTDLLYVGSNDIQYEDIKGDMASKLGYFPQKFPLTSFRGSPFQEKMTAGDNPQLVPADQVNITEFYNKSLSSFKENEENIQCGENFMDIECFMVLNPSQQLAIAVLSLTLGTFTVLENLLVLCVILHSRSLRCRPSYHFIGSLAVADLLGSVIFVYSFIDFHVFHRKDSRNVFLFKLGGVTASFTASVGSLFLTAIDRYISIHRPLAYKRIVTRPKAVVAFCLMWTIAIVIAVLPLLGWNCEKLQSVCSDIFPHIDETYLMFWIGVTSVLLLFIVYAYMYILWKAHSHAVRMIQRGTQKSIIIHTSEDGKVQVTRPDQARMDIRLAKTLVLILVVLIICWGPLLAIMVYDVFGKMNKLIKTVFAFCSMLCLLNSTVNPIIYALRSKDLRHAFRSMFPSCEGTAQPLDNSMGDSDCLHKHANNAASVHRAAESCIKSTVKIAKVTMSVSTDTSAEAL
T2 sequence (P34972 whole entry): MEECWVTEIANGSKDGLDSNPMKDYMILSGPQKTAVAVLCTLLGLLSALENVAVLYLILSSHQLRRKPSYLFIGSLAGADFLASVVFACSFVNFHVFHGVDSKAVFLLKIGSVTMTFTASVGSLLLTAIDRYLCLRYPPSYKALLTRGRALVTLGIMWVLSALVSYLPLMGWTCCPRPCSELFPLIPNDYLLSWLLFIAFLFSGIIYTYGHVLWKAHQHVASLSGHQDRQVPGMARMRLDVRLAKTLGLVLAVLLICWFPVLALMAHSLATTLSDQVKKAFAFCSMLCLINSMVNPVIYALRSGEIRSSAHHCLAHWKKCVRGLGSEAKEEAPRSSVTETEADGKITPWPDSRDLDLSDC

For `N#Cc1ccc(NC[C@H]2C[C@H](c3ccc(Cl)cc3)[C@H](c3ccc(Cl)cc3Cl)C2)cc1` [Compound 16], the Ki (CB1 receptor) was > 1500 nM and the Ki (CB2 receptor) was > 1500 nM.

In the case of `N#Cc1ccc(OC[C@@H]2C[C@H](c3ccc(Cl)cc3)[C@H](c3ccc(Cl)cc3Cl)C2)cc1` [Compound 18], the Ki (CB1 receptor) is reported as 1.86 nM and the Ki (CB2 receptor) is reported as > 1500 nM.

In the case of `Fc1ccc(OC[C@@H]2C[C@H](c3ccc(Cl)cc3)[C@H](c3ccc(Cl)cc3Cl)C2)cc1F` [Compound 17], the Ki (CB1 receptor) is reported as 12.5 nM and the Ki (CB2 receptor) is reported as > 1800 nM.

With `N#Cc1ccc(NC[C@@H]2C[C@H](c3ccc(Cl)cc3)[C@H](c3ccc(Cl)cc3Cl)C2)cc1` [Compound 15] the Ki (CB1 receptor) was 1 nM and the Ki (CB2 receptor) was > 1500 nM.

With `N#Cc1ccc(CNC[C@@H]2C[C@H](c3ccc(Cl)cc3)[C@H](c3ccc(Cl)cc3Cl)C2)cc1` [Compound 14] the Ki (CB1 receptor) was 12.7 nM and the Ki (CB2 receptor) was > 1800 nM.
